Target: GST-Bcl-2 (Homo sapiens (Human), UniProt P10415)
Assay: Time Resolved-Fluorescence Resonance Energy Transfer (TR-FRET) Bcl-2 binding assay
Conditions: GST-Bcl-2 1 nM, F-Bak peptide probe 100 nM, Tb-anti-GST antibody 1 nM; Ki by Wang's equation
Summary of the method: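 Competition TR-FRET: GST-Bcl-2 with fluorescent Bak peptide probe and Tb-anti-GST antibody, compounds serially diluted from 50 μM (2× start, 10% DMSO).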

GST-Bcl-2, sequence (P10415 whole entry): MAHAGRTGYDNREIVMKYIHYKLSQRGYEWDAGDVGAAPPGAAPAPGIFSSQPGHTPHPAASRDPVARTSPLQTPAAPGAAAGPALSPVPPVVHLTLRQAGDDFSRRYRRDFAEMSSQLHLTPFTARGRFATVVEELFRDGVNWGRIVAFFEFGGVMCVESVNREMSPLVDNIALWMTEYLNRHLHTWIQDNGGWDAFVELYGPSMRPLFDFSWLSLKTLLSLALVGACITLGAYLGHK

Row | Compound | Ki [nM]
1 | CC1(C)CCC(CN2CCN(c3ccc(C(=O)NS(=O)(=O)c4ccc(NC5CCN(C6CCOCC6)CC5)c([N+](=O)[O-])c4)c(Oc4ccc5[nH]cc(Cl)c5c4)c3)CC2)=C(c2ccc(Cl)cc2)C1 [Example 281, 2-[(3-chloro-1H-indol-5-yl)oxy]-4-(4-{[2-(4-chlorophenyl)-4,4-dimethylcyclohex-1-en-1-yl]methyl}piperazin-1-yl)-N-({3-nitro-4-[(1-tetrahydro-2H-pyran-4-ylpiperidin-4-yl)amino]phenyl}sulfonyl)benzamide] | 0.111
2 | CN1CCC(Nc2ccc(S(=O)(=O)NC(=O)c3ccc(N4CCN(CC5=C(c6ccc(Cl)cc6)CC(C)(C)CC5)CC4)cc3Oc3ccccc3F)cc2[N+](=O)[O-])CC1 [Example 122, 4-(4-{[2-(4-chlorophenyl)-4,4-dimethylcyclohex-1-en-1-yl]methyl}piperazin-1-yl)-2-(2-fluorophenoxy)-N-({4-[(1-methylpiperidin-4-yl)amino]-3-nitrophenyl}sulfonyl)benzamide] | < 0.001
3 | CC1(C)CCC(CN2CCN(c3ccc(C(=O)NS(=O)(=O)c4ccc(NCCCN5CCOCC5)c([N+](=O)[O-])c4)c(Oc4ccccc4F)c3)CC2)=C(c2ccc(Cl)cc2)C1 [Example 125, 4-(4-{[2-(4-chlorophenyl)-4,4-dimethylcyclohex-1-en-1-yl]methyl}piperazin-1-yl)-2-(2-fluorophenoxy)-N-({4-[(3-morpholin-4-ylpropyl)amino]-3-nitrophenyl}sulfonyl)benzamide] | 0.075
4 | CC1(C)CCC(CN2CCN(c3ccc(C(=O)NS(=O)(=O)c4ccc(NCC5CCOCC5)c([N+](=O)[O-])c4)c(Oc4cccc(Cl)c4)c3)CC2)=C(c2ccc(Cl)cc2)C1 [Example 246, 2-(3-chlorophenoxy)-4-(4-{[2-(4-chlorophenyl)-4,4-dimethylcyclohex-1-en-1-yl]methyl}piperazin-1-yl)-N-({3-nitro-4-[(tetrahydro-2H-pyran-4-ylmethyl)amino]phenyl}sulfonyl)benzamide] | 0.065
5 | CC1(C)CCC(CN2CCN(c3ccc(C(=O)NS(=O)(=O)c4ccc(NC5CCN(C6CCOCC6)CC5)c([N+](=O)[O-])c4)c(Oc4cccc5[nH]c(C(F)(F)F)cc45)c3)CC2)=C(c2ccc(Cl)cc2)C1 [Example 215, 4-(4-{[2-(4-chlorophenyl)-4,4-dimethylcyclohex-1-en-1-yl]methyl}piperazin-1-yl)-N-({3-nitro-4-[(1-tetrahydro-2H-pyran-4-ylpiperidin-4-yl)amino]phenyl}sulfonyl)-2-{[2-(trifluoromethyl)-1H-indol-4-yl]oxy}benzamide] | 2.95
6 | O=C(NS(=O)(=O)c1ccc(NCC2CCOCC2)c([N+](=O)[O-])c1)c1ccc(N2CCN(Cc3ccccc3-c3ccc(Cl)cc3)CC2)cc1Oc1cccc(-c2ccccc2)c1 [Example 86, 2-(1,1′-biphenyl-3-yloxy)-4-(4-((4′-chloro-1,1′-biphenyl-2-yl)methyl)piperazin-1-yl)-N-((3-nitro-4-((tetrahydro-2H-pyran-4-ylmethyl)amino)phenyl)sulfonyl)benzamide] | 5.26
7 | CC1(C)CCC(CN2CCN(c3ccc(C(=O)NS(=O)(=O)c4ccc(NC(CO)C5CCOCC5)c([N+](=O)[O-])c4)c(Oc4cc5cc[nH]c5cc4F)c3)CC2)=C(c2ccc(Cl)cc2)C1 (stereo not shown) [Example 240, 4-(4-{[2-(4-chlorophenyl)-4,4-dimethylcyclohex-1-en-1-yl]methyl}piperazin-1-yl)-2-[(6-fluoro-1H-indol-5-yl)oxy]-N-({4-[(2-hydroxy-1-tetrahydro-2H-pyran-4-ylethyl)amino]-3-nitrophenyl}sulfonyl)benzamide] | 0.912
8 | CN1CCN(Nc2ccc(S(=O)(=O)NC(=O)c3ccc(N4CCN(CC5=C(c6ccc(Cl)cc6)CC(C)(C)CC5)CC4)cc3Oc3cc4cc[nH]c4cc3Cl)cc2[N+](=O)[O-])CC1 [Example 244, 2-[(6-chloro-1H-indol-5-yl)oxy]-4-(4-{[2-(4-chlorophenyl)-4,4-dimethylcyclohex-1-en-1-yl]methyl}piperazin-1-yl)-N-({4-[(4-methylpiperazin-1-yl)amino]-3-nitrophenyl}sulfonyl)benzamide] | 1.73
9 | CN1CCC(Nc2ccc(S(=O)(=O)NC(=O)c3ccc(N4CCN(CC5=C(c6ccc(Cl)cc6)CC(C)(C)CC5)CC4)cc3Oc3cccc(F)c3F)cc2[N+](=O)[O-])CC1 [Example 45, 4-(4-((2-(4-chlorophenyl)-4,4-dimethylcyclohex-1-en-1-yl)methyl)piperazin-1-yl)-2-(2,3-difluorophenoxy)-N-((4-((1-methylpiperidin-4-yl)amino)-3-nitrophenyl)sulfonyl)benzamide] | 0.047
10 | CC1(C)CCC(CN2CCN(c3ccc(C(=O)NS(=O)(=O)c4ccc(NC5CCN(C6CCOCC6)CC5)c([N+](=O)[O-])c4)c(Oc4ccccc4Cl)c3)CC2)=C(c2ccc(Cl)cc2)C1 [Example 115, 2-(2-chlorophenoxy)-4-(4-{[2-(4-chlorophenyl)-4,4-dimethylcyclohex-1-en-1-yl]methyl}piperazin-1-yl)-N-({3-nitro-4-[(1-tetrahydro-2H-pyran-4-ylpiperidin-4-yl)amino]phenyl}sulfonyl)benzamide] | 0.042
11 | CN1CCC(Nc2ccc(S(=O)(=O)NC(=O)c3ccc(N4CCN(CC5=C(c6ccc(Cl)cc6)CC(C)(C)CC5)CC4)cc3Oc3ccc(F)cc3Cl)cc2[N+](=O)[O-])CC1 [Example 61, 2-(2-chloro-4-fluorophenoxy)-4-(4-((2-(4-chlorophenyl)-4,4-dimethylcyclohex-1-en-1-yl)methyl)piperazin-1-yl)-N-((4-((1-methylpiperidin-4-yl)amino)-3-nitrophenyl)sulfonyl)benzamide] | 0.22
12 | CC1(C)CCC(CN2CCN(c3ccc(C(=O)NS(=O)(=O)c4ccc(NCCCN5CCOCC5)c([N+](=O)[O-])c4)c(Oc4cccc(F)c4F)c3)CC2)=C(c2ccc(Cl)cc2)C1 [Example 51, 4-(4-((2-(4-chlorophenyl)-4,4-dimethylcyclohex-1-en-1-yl)methyl)piperazin-1-yl)-2-(2,3-difluorophenoxy)-N-((4-((3-morpholin-4-ylpropyl)amino)-3-nitrophenyl)sulfonyl)benzamide] | 0.066
13 | CC1(C)CCC(CN2CCN(c3ccc(C(=O)NS(=O)(=O)c4ccc(NCCCN5CCNC(=O)C5)c([N+](=O)[O-])c4)c(Oc4cc(F)cc5[nH]ccc45)c3)CC2)=C(c2ccc(Cl)cc2)C1 [Example 257, 4-(4-{[2-(4-chlorophenyl)-4,4-dimethylcyclohex-1-en-1-yl]methyl}piperazin-1-yl)-2-[(6-fluoro-1H-indol-4-yl)oxy]-N-[(3-nitro-4-{[3-(3-oxopiperazin-1-yl)propyl]amino}phenyl)sulfonyl]benzamide] | 0.097
14 | CC1(C)CCC(CN2CCN(c3ccc(C(=O)NS(=O)(=O)c4ccc(NCC5CCOCC5)c([N+](=O)[O-])c4)c(Oc4cnc(N)c(F)c4)c3)CC2)=C(c2ccc(Cl)cc2)C1 [Example 302, 2-[(6-amino-5-fluoropyridin-3-yl)oxy]-4-(4-{[2-(4-chlorophenyl)-4,4-dimethylcyclohex-1-en-1-yl]methyl}piperazin-1-yl)-N-({3-nitro-4-[(tetrahydro-2H-pyran-4-ylmethyl)amino]phenyl}sulfonyl)benzamide] | < 0.01
15 | CC1(C)CCC(CN2CCN(c3ccc(C(=O)NS(=O)(=O)c4ccc(NC5CCN(C6CCOCC6)CC5)c([N+](=O)[O-])c4)c(Oc4ccnc(NC(=O)OC(C)(C)C)c4)c3)CC2)=C(c2ccc(Cl)cc2)C1 [Example 271, tert-butyl 4-(5-(4-{[2-(4-chlorophenyl)-4,4-dimethylcyclohex-1-en-1-yl]methyl}piperazin-1-yl)-2-{[({3-nitro-4-[(1-tetrahydro-2H-pyran-4-ylpiperidin-4-yl)amino]phenyl}sulfonyl)amino]carbonyl}phenoxy)pyridin-2-ylcarbamate] | 1.91
16 | CC1(C)CCC(CN2CCN(c3ccc(C(=O)NS(=O)(=O)c4ccc(NC5CCN(CC6CC6)CC5)c([N+](=O)[O-])c4)c(Oc4cc5cc[nH]c5cc4F)c3)CC2)=C(c2ccc(Cl)cc2)C1 [Example 236, 4-(4-{[2-(4-chlorophenyl)-4,4-dimethylcyclohex-1-en-1-yl]methyl}piperazin-1-yl)-N-[(4-{[1-(cyclopropylmethyl)piperidin-4-yl]amino}-3-nitrophenyl)sulfonyl]-2-[(6-fluoro-1H-indol-5-yl)oxy]benzamide] | 0.071
17 | COCCNc1ccc(S(=O)(=O)NC(=O)c2ccc(N3CCN(CC4=C(c5ccc(Cl)cc5)CC(C)(C)CC4)CC3)cc2Oc2cccc3c2CC(=O)N3)cc1[N+](=O)[O-] [Example 321, 4-(4-{[2-(4-chlorophenyl)-4,4-dimethylcyclohex-1-en-1-yl]methyl}piperazin-1-yl)-N-({4-[(2-methoxyethyl)amino]-3-nitrophenyl}sulfonyl)-2-[(2-oxo-2,3-dihydro-1H-indol-4-yl)oxy]benzamide] | 0.029
18 | Cc1nc2cc(Oc3cc(N4CCN(Cc5ccccc5-c5ccc(Cl)cc5)CC4)ccc3C(=O)NS(=O)(=O)c3ccc(NCCCN4CCOCC4)c([N+](=O)[O-])c3)ccc2s1 [Example 24, 4-(4-((4′-chloro-1,1′-biphenyl-2-yl)methyl)piperazin-1-yl)-2-((2-methyl-1,3-benzothiazol-5-yl)oxy)-N-((4-((3-morpholin-4-ylpropyl)amino)-3-nitrophenyl)sulfonyl)benzamide] | 15
19 | CC1(C)CCC(CN2CCN(c3ccc(C(=O)NS(=O)(=O)c4ccc(NC5CCN(C6CCOCC6)CC5)c([N+](=O)[O-])c4)c(Oc4ccc(N)nc4)c3)CC2)=C(c2ccc(Cl)cc2)C1 [Example 261, 2-[(6-aminopyridin-3-yl)oxy]-4-(4-{[2-(4-chlorophenyl)-4,4-dimethylcyclohex-1-en-1-yl]methyl}piperazin-1-yl)-N-({3-nitro-4-[(1-tetrahydro-2H-pyran-4-ylpiperidin-4-yl)amino]phenyl}sulfonyl)benzamide] | 0.186

— patent publication US8952157B2, “Apoptosis-inducing agents for the treatment of cancer and immune and autoimmune diseases” (AbbVie Inc., priority 2008, dated 2015)
